Measured values as given in patent US20060189679A1, “C10 cyclopropyl ester substituted taxane compositions” (priority 2005, published 2006).
Where “and” joins values, the source holds several entries; their conditions need not be identical. Identical values can stand only once. Like-named read-outs stand apart in the source and are kept apart here.

What was measured:
[1] = system: DLD-1 multi-drug resistant human colon carcinoma xenografts; settings: for MDS to 2.0 g ± SEM (n): DLD1-e07 study; for antitumor activity: DLD e07, optimum dose, route (IV) and schedule; for # Death NTR (Non-Treatment Related) / # Death TR (Treatment Related): mouse, in vivo
[2] = system: 1A9 ovarian carcinoma cells; experiment: In vitro cytotoxic activity (MTT, 72 hr); type: cell-based, human; settings: unit not given (dilutions in nM), read-out: In Vitro Antitumor Activity (IC50)
[3] = system: LnCaP prostate carcinoma cells; experiment: In vitro cytotoxic activity (MTT, 72 hr); type: cell-based, human; settings: unit not given (dilutions in nM), read-out: In Vitro Antitumor Activity (IC50)
[4] = system: PC-3 prostate carcinoma cells; experiment: In vitro cytotoxic activity (MTT, 72 hr); type: cell-based, human; settings: unit not given (dilutions in nM), read-out: In Vitro Antitumor Activity (IC50)
[5] = system: HCT116 human colon carcinoma cells; experiment: Cell cycle and apoptotic analyses (propidium iodide flow cytometry); type: cell-based; settings: HCT-116 cells, 24 hr exposure
[6] = system: PANC-1 pancreatic adenocarcinoma cells; experiment: In vitro cytotoxic activity (MTT, 72 hr); type: cell-based, human; settings: unit not given (dilutions in nM), read-out: In Vitro Antitumor Activity (IC50)
[7] = system: 786-0 human renal carcinoma xenografts; settings: for Median survival / Median survival Ratio: iv
[8] = system: HCT-116 colon carcinoma cells; experiment: In vitro cytotoxic activity (MTT, 72 hr); type: cell-based, human; settings: unit not given (dilutions in nM), read-out: In Vitro Antitumor Activity (IC50)
[9] = system: SW480 human colon carcinoma xenografts; settings: mouse, in vivo; for controlling tumor growth compared to the lower doses of compound 3102: iv
[10] = Toxicity profile on oral and IV dosing in rats; settings: dosed both orally and IV
[11] = system: 1A9-PTX10 paclitaxel resistant ovarian carcinoma cells (tubulin mutation); experiment: In vitro cytotoxic activity (MTT, 72 hr); type: cell-based, human; settings: for IC50: 1A9-PTX10, ovarian, tubulin mutation, MTT 72 hr, unit not given (dilutions in nM), read-out: In Vitro Antitumor Activity (IC50)
[12] = system: DLD-1 resistant colon carcinoma cells (overexpresses p-glycoprotein); experiment: In vitro cytotoxic activity (MTT, 72 hr); type: cell-based, human; settings: DLD-1, colon, p-glycoprotein resistance, unit not given (dilutions in nM), read-out: In Vitro Antitumor Activity (IC50)
[13] = system: HT-29 colon carcinoma cells; experiment: In vitro cytotoxic activity (MTT, 72 hr); type: cell-based, human; settings: unit not given (dilutions in nM), read-out: In Vitro Antitumor Activity (IC50)
[14] = system: 1A9-PTX22 paclitaxel resistant ovarian carcinoma cells (tubulin mutation); experiment: In vitro cytotoxic activity (MTT, 72 hr); type: cell-based, human; settings: for IC50: 1A9-PTX22, ovarian, tubulin mutation, MTT 72 hr, unit not given (dilutions in nM), read-out: In Vitro Antitumor Activity (IC50)
[15] = Homo sapiens, Ovarian carcinoma cell
[16] = IV QWK × 3 25 mg/kg vs 5% EC in Saline PO Q4D × 4
[17] = IV QWK × 3 30 mg/kg vs 5% EC in Saline PO Q4D × 4

Compound: CC(=O)O[C@@]12CO[C@@H]1C[C@H](O)[C@@]1(C)C(=O)[C@H](OC(=O)C3CC3)C3=C(C)[C@@H](OC(=O)[C@H](O)[C@@H](NC(=O)OCC(C)C)c4ccco4)C[C@@](O)([C@@H](OC(=O)c4ccccc4)C12)C3(C)C (stereo partly drawn) [Compound 3102]
- MDS to 2.0 g ± SEM (n) ([1]; 30 mg/kg IV Q4D × 4): 45.3 ± 4.6
- MDS to 2.0 g ± SEM (n) ([1]; 50 mg/kg PO Q4D × 4): 47.1 ± 3.9
- MDS to 2.0 g ± SEM (n) ([1]; 70 mg/kg PO Q4D × 4): 46.1 ± 3.5
- MDS to 2.0 g ± SEM (n) ([1]; 80 mg/kg PO Q4D × 4): 53.8±
- IC50 [2, 15]: 1.6 nM
- IC50 ([3]; Homo sapiens): 2.6 nM
- IC50 ([4]; Homo sapiens): 1.8 nM
- Apoptotic (percentage of cells in sub G1 peak) ([5]; 10 nM): 24.4%
- G1 (percentage of cells) ([5]; 10 nM): 20.1%
- G2/M (percentage of cells) ([5]; 10 nM): 27.3%
- S (percentage of cells) ([5]; 10 nM): 23.9%
- Apoptotic (percentage of cells in sub G1 peak) ([5]; 100 nM): 11.7%
- G1 (percentage of cells) ([5]; 100 nM): 7.0%
- G2/M (percentage of cells) ([5]; 100 nM): 74.0%
- S (percentage of cells) ([5]; 100 nM): 7.1%
- IC50 ([6]; Homo sapiens): 1.8 nM
- Logrank Test Chi square ([7]; IV Q4D × 4 30 mg/kg vs 5% EC in Saline PO Q4D × 4): 5.459
- Logrank Test Chi square ([7]; PO Q4D × 4 50 mg/kg vs 5% EC in Saline PO Q4D × 4): 1.972
- Logrank Test Chi square ([7]; PO Q4D × 4 70 mg/kg vs 5% EC in Saline PO Q4D × 4): 0.2502
- Logrank Test Chi square ([7]; PO Q4D × 4 80 mg/kg vs 5% EC in Saline PO Q4D × 4): 5.234
- IC50 ([8]; Homo sapiens): 0.9 nM
- treatment related death [9]: One
- toxicity profile [10]: favorable toxicity profile
- potency compared to that of paclitaxel ([11]; 1A9-PTX10 (sentence covers 1A9-PTX10 and 1A9-PTX22)): 4 to 8 fold
- IC50 ([11]; Homo sapiens, 1A9/ptx-10): 5.2 nM
- IC50 ([12]; Homo sapiens): 1.9 nM
- IC50 ([13]; Homo sapiens): 1.2 nM
- potency compared to that of paclitaxel ([14]; 1A9-PTX22 (sentence covers 1A9-PTX10 and 1A9-PTX22)): 4 to 8 fold
- IC50 ([14]; Homo sapiens, 1A9/ptx-22): 8.5 nM

Compound: CC(=O)O[C@H]1C(=O)[C@@]2(C)[C@H]([C@H](OC(=O)c3ccccc3)[C@]3(O)C[C@H](OC(=O)[C@H](O)[C@@H](NC(=O)c4ccccc4)c4ccccc4)C(C)=C1C3(C)C)[C@]1(OC(C)=O)CO[C@@H]1C[C@@H]2O [Paclitaxel, paclitaxel]
- MDS to 2.0 g ± SEM (n) ([1]; 30 mg/kg IV QOD × 5): 40.2 ± 4.7
- antitumor activity [1]: failed to demonstrate significant antitumor activity against DLD-1 tumors
- # Death NTR (Non-Treatment Related) [1]: 0
- # Death TR (Treatment Related) ([1]; nude): 0
- IC50 [2, 15]: 2.5 nM
- IC50 ([3]; Homo sapiens): 3.1 nM
- IC50 ([4]; Homo sapiens): 4.1 nM
- Apoptotic (percentage of cells in sub G1 peak) ([5]; 10 nM): 24.0%
- G1 (percentage of cells) ([5]; 10 nM): 31.1%
- G2/M (percentage of cells) ([5]; 10 nM): 17.8%
- S (percentage of cells) ([5]; 10 nM): 25.0%
- Apoptotic (percentage of cells in sub G1 peak) ([5]; 100 nM): 15.3%
- G1 (percentage of cells) ([5]; 100 nM): 7.0%
- G2/M (percentage of cells) ([5]; 100 nM): 67.2%
- S (percentage of cells) ([5]; 100 nM): 9.4%
- IC50 ([6]; Homo sapiens): 4.2 nM
- slowing of tumor growth vs control (statistical analysis, words) ([7]; 786-0 e89, optimum dose, route (IV) and schedule): did not appear to significantly slow the growth of tumors compared to control
- Logrank Test Chi square ([7]; IV QOD × 5 30 mg/kg vs 5% EC in Saline PO Q4D × 4): 3.414
- # Death NTR (Non-Treatment Related) ([7]; mouse, in vivo): 0
- # Death TR (Treatment Related) ([7]; mouse, in vivo): 0
- Day of Max. % BW Loss ([7]; mouse, in vivo): Day 13
- MDS to 2.0 g ± SEM (n) ([7]; mouse, in vivo): 40.0 ± 6.6
- Max. % BW Loss ([7]; mouse, in vivo): −7.6%;
- Are the survival curves sig different? ([7]; mouse, in vivo, 30 mg/kg): No
- Median survival ([7]; mouse, in vivo, 30 mg/kg): 51.15
- # Death NTR (Non-Treatment Related) [9]: 0
- # Death TR (Treatment Related) [9]: 0
- MDS to 2.0 g ± SEM (n) [9]: 26.2 ± 3.0
- controlling tumor growth compared to the lower doses of compound 3102 [9]: as effective or slightly less effective in controlling tumor growth
- IC50 ([11]; Homo sapiens, 1A9/ptx-10): > 40 nM
- IC50 ([12]; Homo sapiens): > 10 nM
- IC50 ([13]; Homo sapiens): 2.6 nM
- IC50 ([14]; Homo sapiens, 1A9/ptx-22): > 30 nM

Compound: docetaxel
- MDS to 2.0 g ± SEM (n) ([1]; 25 mg/kg IV Q7D × 3): 35.0 ± 2.3
- MDS to 2.0 g ± SEM (n) ([1]; 30 mg/kg IV Q7D × 3): 37.6 ± 6.5
- antitumor activity [1]: failed to demonstrate significant antitumor activity against DLD-1 tumors
- # Death NTR (Non-Treatment Related) [1]: 0
- # Death TR (Treatment Related) [1]: 0
- IC50 [2]: 1.8 nM
- IC50 [3]: 1.9 nM
- IC50 [4]: 2.8 nM
- Apoptotic (percentage of cells in sub G1 peak) ([5]; 10 nM): 44.1%
- G1 (percentage of cells) ([5]; 10 nM): 10.4%
- G2/M (percentage of cells) ([5]; 10 nM): 17.1%
- S (percentage of cells) ([5]; 10 nM): 25.4%
- Apoptotic (percentage of cells in sub G1 peak) ([5]; 100 nM): 14.4%
- G1 (percentage of cells) ([5]; 100 nM): 4.0%
- G2/M (percentage of cells) ([5]; 100 nM): 68.0%
- S (percentage of cells) ([5]; 100 nM): 11.6%
- IC50 [6]: 2 nM
- Hazard Ratio [7, 16]: 2.967
- Logrank Test Chi square [7, 16]: 4.859
- Hazard Ratio [7, 17]: 3.39
- Logrank Test Chi square [7, 17]: 5.271
- # Death TR (Treatment Related) ([7]; mouse, in vivo): 0
- MDS to 2.0 g ± SEM (n) ([7]; mouse, in vivo): 52.1 ± 4.7 and 49.3 ± 4.3
- slowing of tumor growth vs vehicle control (statistical analysis, words) ([7]; mouse, in vivo): able to slow 786-0 tumor growth compared to the vehicle control
- Are the survival curves sig different? ([7]; mouse, in vivo, 25 mg/kg): Yes
- Are the survival curves sig different? ([7]; mouse, in vivo, 30 mg/kg): Yes
- Median survival ([7]; mouse, in vivo, 25 mg/kg): 52.7
- Median survival Ratio ([7]; mouse, in vivo, 25 mg/kg): 0.704
- Median survival ([7]; mouse, in vivo, 30 mg/kg): 52
- Median survival Ratio ([7]; mouse, in vivo, 30 mg/kg): 0.7135
- IC50 [8]: 0.9 nM
- MDS to 2.0 g ± SEM (n) [9]: 29.0 ± 7.8 and 32.4 ± 4.1
- non-treatment related death [9]: one
- non-treatment related deaths [9]: two
- treatment related death [9]: one
- controlling tumor growth compared to the lower doses of compound 3102 [9]: as effective or slightly less effective in controlling tumor growth
- IC50 [11]: 7 nM
- IC50 [12]: 9.2 nM
- IC50 [13]: 1.2 nM
- IC50 [14]: 8.5 nM
